This note sets out measurements from patent US20120264735A1 (priority 2009, published 2012).

Molecules are shown by their SMILES.

For this experiment, the target named is T1, c-Met kinase (recombinant c-Met) (Homo sapiens, UniProt P08581).
T1 construct: 0.27 nM recombinant c-Met
T1 sequence (P08581 25-1390): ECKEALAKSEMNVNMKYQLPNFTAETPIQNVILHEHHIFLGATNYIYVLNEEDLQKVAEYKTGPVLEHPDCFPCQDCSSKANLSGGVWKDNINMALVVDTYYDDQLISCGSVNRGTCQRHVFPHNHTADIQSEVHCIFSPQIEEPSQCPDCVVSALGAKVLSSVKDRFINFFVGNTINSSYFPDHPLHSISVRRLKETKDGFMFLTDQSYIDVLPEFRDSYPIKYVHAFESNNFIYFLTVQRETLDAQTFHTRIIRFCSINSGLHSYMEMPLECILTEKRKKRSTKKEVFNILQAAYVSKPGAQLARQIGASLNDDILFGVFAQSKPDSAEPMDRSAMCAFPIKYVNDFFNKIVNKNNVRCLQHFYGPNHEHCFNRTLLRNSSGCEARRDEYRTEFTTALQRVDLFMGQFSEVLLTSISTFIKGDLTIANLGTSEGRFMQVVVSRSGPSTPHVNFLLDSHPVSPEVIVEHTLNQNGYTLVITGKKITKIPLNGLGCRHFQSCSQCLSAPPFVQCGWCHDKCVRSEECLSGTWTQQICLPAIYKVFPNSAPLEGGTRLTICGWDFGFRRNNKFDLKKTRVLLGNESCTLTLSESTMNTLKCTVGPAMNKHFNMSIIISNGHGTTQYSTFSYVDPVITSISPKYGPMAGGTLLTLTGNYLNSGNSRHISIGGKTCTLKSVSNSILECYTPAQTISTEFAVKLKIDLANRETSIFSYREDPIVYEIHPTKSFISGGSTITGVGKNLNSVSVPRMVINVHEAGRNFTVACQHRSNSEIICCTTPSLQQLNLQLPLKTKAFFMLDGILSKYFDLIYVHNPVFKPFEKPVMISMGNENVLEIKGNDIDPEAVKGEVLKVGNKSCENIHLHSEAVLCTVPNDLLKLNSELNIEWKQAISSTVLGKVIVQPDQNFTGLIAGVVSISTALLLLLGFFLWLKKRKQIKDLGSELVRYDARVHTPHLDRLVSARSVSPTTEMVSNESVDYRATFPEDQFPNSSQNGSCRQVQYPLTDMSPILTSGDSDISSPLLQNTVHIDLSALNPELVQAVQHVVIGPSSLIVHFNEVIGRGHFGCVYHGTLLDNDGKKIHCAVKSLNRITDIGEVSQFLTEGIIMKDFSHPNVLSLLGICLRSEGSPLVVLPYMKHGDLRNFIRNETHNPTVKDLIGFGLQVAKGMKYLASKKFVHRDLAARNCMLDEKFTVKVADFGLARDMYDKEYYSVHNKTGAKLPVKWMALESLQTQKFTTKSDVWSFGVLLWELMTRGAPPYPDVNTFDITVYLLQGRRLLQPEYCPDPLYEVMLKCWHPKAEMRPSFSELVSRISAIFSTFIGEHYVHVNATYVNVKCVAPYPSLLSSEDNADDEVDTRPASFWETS
As to the kind of experiment: In vitro kinase assay I (homogeneous time-resolved fluorescence tyrosine kinase assay). Type of experiment: biochemical. The essentials: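 Biotinylated peptide (0.5 μM) phosphorylated by 0.2 nM recombinant c-Met with 50 μM MgATP, 60 min at room temperature, pH 7.4, 5% DMSO. EDTA stop; HTRF read with Eu-anti-phosphotyrosine antibody and streptavidin-APC. IC50 from 4-parameter logistic fit.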
Turning to `Cn1cc(-n2ccc(=O)c(Cc3cccc(-c4ncc([C@]5(F)CCNC[C@@H]5O)cn4)c3)n2)cn1` (racemic) [Example 749, rac-3-({3-[5-(trans-4-Fluoro-3-hydroxypiperidin-4-yl)pyrimidin-2-yl]benzyl}-1-(1-methyl-1H-pyrazol-4-yl)pyridazin-4(1H)-one], the IC50 was below 100 nM. Then `Cn1cc(-n2ccc(=O)c(C(F)c3ccc4ncccc4c3)n2)cn1` (racemic) [Example 753, rac-3-[Fluoro(quinolin-6-yl)methyl]-1-(1-methyl-1H-pyrazol-4-yl)pyridazin-4(1H)-one], with 1000 to 3000 nM; and `Cn1cc(-n2ccc(=O)c(Cc3cccc(-c4ncc(C5CCOC5)cn4)c3)n2)cn1` (racemic) [compound 199, rac-1-(1-methyl-1H-pyrazol-4-yl)-3-{3-[5-(tetrahydrofuran-3-yl)pyrimidin-2-yl]benzyl} pyridazin-4(1H)-one], with below 100 nM. Consider `CCOc1cnc(-c2cccc(C(C)c3nn(-c4cnn(C)c4)ccc3=O)c2)nc1` (single isomer, unassigned) [Example 201, 3-{(1S or R)-1-[3-(5-ethoxypyrimidin-2-yl)phenyl]ethyl}-1-(1-methyl-1H-pyrazol-4-yl)pyridazin-4(1H)-one], for which the concentration for half-maximal inhibition (IC50) is 100 to 1000 nM. The result for `CCOc1cnc(-c2cccc(C(C)c3nn(-c4cnn(C)c4)ccc3=O)c2)nc1` (single isomer, unassigned) [Example 202, 3-{(1R or S)-1-[3-(5-ethoxypyrimidin-2-yl)phenyl]ethyl}-1-(1-methyl-1H-pyrazol-4-yl)pyridazin-4(1H)-one] reads below 100 nM.

On to `COc1cnc(-c2cccc(C(C)c3nn(-c4cnn(C)c4)ccc3=O)c2)nc1` (single isomer, unassigned) [Example 203, 3-{(1S or R)-1-[3-(5-Methoxypyrimidin-2-yl)phenyl]ethyl}-1-(1-methyl-1H-pyrazol-4-yl)pyridazin-4(1H)-one], for which the half-inhibitory concentration (IC50) lay in the range of 100 to 1000 nM. The result for `COc1cnc(-c2cccc(C(C)c3nn(-c4cnn(C)c4)ccc3=O)c2)nc1` (single isomer, unassigned) [Example 204, 3-{(1R or S)-1-[3-(5-methoxypyrimidin-2-yl)phenyl]ethyl}-1-(1-methyl-1H-pyrazol-4-yl)pyridazin-4(1H)-one] reads below 100 nM; that for `CCOc1cnc(-c2cccc(C(CC)c3nn(-c4cnn(C)c4)ccc3=O)c2)nc1` (single isomer, unassigned) [Example 205, 3-{(1S or R)-1-[3-(5-ethoxypyrimidin-2-yl)phenyl]propyl}-1-(1-methyl-1H-pyrazol-4-yl)pyridazin-4(1H)-one], 100 to 1000 nM.

As for `CCOc1cnc(-c2cccc(C(CC)c3nn(-c4cnn(C)c4)ccc3=O)c2)nc1` (single isomer, unassigned) [Example 206, 3-{(1R or S)-1-[3-(5-ethoxypyrimidin-2-yl)phenyl]propyl}-1-(1-methyl-1H-pyrazol-4-yl)pyridazin-4(1H)-one], the IC50 was below 100 nM. Consider `CCCC(c1cccc(-c2ncc(OCC)cn2)c1)c1nn(-c2cnn(C)c2)ccc1=O` (single isomer, unassigned) [Example 207, 3-{(1S or R)-1-[3-(5-ethoxypyrimidin-2-yl)phenyl]butyl}-1-(1-methyl-1H-pyrazol-4-yl)pyridazin-4(1H)-one], for which the 50% inhibitory concentration (IC50) was 100 to 1000 nM.

With `CCCC(c1cccc(-c2ncc(OCC)cn2)c1)c1nn(-c2cnn(C)c2)ccc1=O` (single isomer, unassigned) [Example 208, 3-{(1R or S)-1-[3-(5-ethoxypyrimidin-2-yl)phenyl]butyl}-1-(1-methyl-1H-pyrazol-4-yl)pyridazin-4(1H)-one], the 50% inhibitory concentration (IC50) is below 100 nM. Take `CC(c1cccc(-c2ncc(OC(F)F)cn2)c1)c1nn(-c2cnn(C)c2)ccc1=O` (single isomer, unassigned) [Example 209, 3-[(1S or R)-1-{3-[5-(difluoromethoxy)pyrimidin-2-yl]phenyl}ethyl]-1-(1-methyl-1H-pyrazol-4-yl)pyridazin-4(1H)-one]: the IC50 is 100 to 1000 nM. As to `CC(c1cccc(-c2ncc(OC(F)F)cn2)c1)c1nn(-c2cnn(C)c2)ccc1=O` (single isomer, unassigned) [Example 210, 3-[(1R or S)-1-{3-[5-(difluoromethoxy)pyrimidin-2-yl]phenyl}ethyl]-1-(1-methyl-1H-pyrazol-4-yl)pyridazin-4(1H)-one], the IC50 was below 100 nM. Then `CC(c1cccc(-c2ncc(OC3CCOCC3)cn2)c1)c1nn(-c2cnn(C)c2)ccc1=O` (single isomer, unassigned) [Example 211, 1-(1-methyl-1H-pyrazol-4-yl)-3-[(1S or R)-1-{3-[5-(tetrahydro-2H-pyran-4-yloxy)pyrimidin-2-yl]phenyl}ethyl]pyridazin-4(1H)-one], with below 100 nM; and `CC(c1cccc(-c2ncc(OC3CCOCC3)cn2)c1)c1nn(-c2cnn(C)c2)ccc1=O` (single isomer, unassigned) [Example 212, 1-(1-methyl-1H-pyrazol-4-yl)-3-[(1R or S)-1-{3-[5-(tetrahydro-2H-pyran-4-yloxy)pyrimidin-2-yl]phenyl}ethyl]pyridazin-4(1H)-one], with below 100 nM; and `CCn1cc(-n2ccc(=O)c(C(C)c3cccc(-c4ncc(OC5COC5)cn4)c3)n2)cn1` (single isomer, unassigned) [Example 213, 1-(1-ethyl-1H-pyrazol-4-yl)-3-((1S or R)-1-{3-[5-(oxetan-3-yloxy)pyrimidin-2-yl]phenyl}ethyl)pyridazin-4(1H)-one], with 100 to 1000 nM. Then `CCn1cc(-n2ccc(=O)c(C(C)c3cccc(-c4ncc(OC5COC5)cn4)c3)n2)cn1` (single isomer, unassigned) [Example 214, 1-(1-ethyl-1H-pyrazol-4-yl)-3-((1R or S)-1-{3-[5-(oxetan-3-yloxy)pyrimidin-2-yl]phenyl}ethyl)pyridazin-4(1H)-one], with below 100 nM; and `CC(c1cccc(-c2ncc(OC3COC3)cn2)c1)c1nn(-c2cnn(C)c2)ccc1=O` (single isomer, unassigned) [Example 215, 1-(1-methyl-1H-pyrazol-4-yl)-3-((1S or R)-1-{3-[5-(oxetan-3-yloxy)pyrimidin-2-yl]phenyl}ethyl)pyridazin-4(1H)-one], with 100 to 1000 nM; and `CC(c1cccc(-c2ncc(OC3COC3)cn2)c1)c1nn(-c2cnn(C)c2)ccc1=O` (single isomer, unassigned) [Example 216, 1-(1-methyl-1H-pyrazol-4-yl)-3-((1R or S)-1-{3-[5-(oxetan-3-yloxy)pyrimidin-2-yl]phenyl}ethyl)pyridazin-4(1H)-one], with below 100 nM. The result for `CCn1cc(-n2ccc(=O)c(C(C)c3cccc(-c4ncc(COC)cn4)c3)n2)cn1` (single isomer, unassigned) [Example 217, 1-(1-ethyl-1H-pyrazol-4-yl)-3-((1S or R)-1-{3-[5-(methoxymethyl)pyrimidin-2-yl]phenyl}ethyl)pyridazin-4(1H)-one] reads 100 to 1000 nM; that for `CCn1cc(-n2ccc(=O)c(C(C)c3cccc(-c4ncc(COC)cn4)c3)n2)cn1` (single isomer, unassigned) [Example 218, 1-(1-ethyl-1H-pyrazol-4-yl)-3-((1R or S)-1-{3-[5-(methoxymethyl)pyrimidin-2-yl]phenyl}ethyl)pyridazin-4(1H)-one], below 100 nM. Consider `COCc1cnc(-c2cccc(C(C)c3nn(-c4cnn(C)c4)ccc3=O)c2)nc1` (single isomer, unassigned) [Example 219, 3-((1S or R)-1-{3-[5-(methoxymethyl)pyrimidin-2-yl]phenyl}ethyl)-1-(1-methyl-1H-pyrazol-4-yl)pyridazin-4(1H)-one], for which the half-inhibitory concentration (IC50) is 100 to 1000 nM. In the case of `COCc1cnc(-c2cccc(C(C)c3nn(-c4cnn(C)c4)ccc3=O)c2)nc1` (single isomer, unassigned) [Example 220, 3-((1R or S)-1-{3-[5-(methoxymethyl)pyrimidin-2-yl]phenyl}ethyl)-1-(1-methyl-1H-pyrazol-4-yl)pyridazin-4(1H)-one], the IC50 was below 100 nM.

`COCCOc1cnc(-c2cccc(C(C)c3nn(-c4cnn(C)c4)ccc3=O)c2)nc1` (single isomer, unassigned) [Example 222, 3-((1S or R)-1-{3-[5-(2-methoxyethoxy)pyrimidin-2-yl]phenyl}ethyl)-1-(1-methyl-1H-pyrazol-4-yl)pyridazin-4(1H)-one]: the IC50 is 100 to 1000 nM. With `COCCOc1cnc(-c2cccc(C(C)c3nn(-c4cnn(C)c4)ccc3=O)c2)nc1` (single isomer, unassigned) [Example 223, 3-((1R or S)-1-{3-[5-(2-methoxyethoxy)pyrimidin-2-yl]phenyl}ethyl)-1-(1-methyl-1H-pyrazol-4-yl)pyridazin-4(1H)-one], the IC50 was below 100 nM. Then `CCOc1cnc2ccc(C(C)c3nn(-c4cnn(CC)c4)ccc3=O)cc2c1` (single isomer, unassigned) [Example 226, 3-[(1S or R)-1-(3-ethoxyquinolin-6-yl)ethyl]-1-(1-ethyl-1H-pyrazol-4-yl)pyridazin-4(1H)-one], with 100 to 1000 nM.

As for `CCOc1cnc2ccc(C(C)c3nn(-c4cnn(CC)c4)ccc3=O)cc2c1` (single isomer, unassigned) [Example 227, 3-[(1R or S)-1-(3-ethoxyquinolin-6-yl)ethyl]-1-(1-ethyl-1H-pyrazol-4-yl)pyridazin-4(1H)-one], the 50% inhibitory concentration (IC50) was below 100 nM. For `CCn1cc(-n2ccc(=O)c(C(C)c3cccc(-c4ncc(OCc5ccccc5)cn4)c3)n2)cn1` (single isomer, unassigned) [Example 228, 3-((1S or R)-1-{3-[5-(benzyloxy)pyrimidin-2-yl]phenyl}ethyl)-1-(1-ethyl-1H-pyrazol-4-yl)pyridazin-4(1H)-one], the concentration for half-maximal inhibition (IC50) was in the range of 100 to 1000 nM. Take `CCn1cc(-n2ccc(=O)c(C(C)c3cccc(-c4ncc(OCc5ccccc5)cn4)c3)n2)cn1` (single isomer, unassigned) [Example 229, 3-((1R or S)-1-{3-[5-(benzyloxy)pyrimidin-2-yl]phenyl}ethyl)-1-(1-ethyl-1H-pyrazol-4-yl)pyridazin-4(1H)-one]: the half-maximal inhibitory concentration (IC50) was below 100 nM.

The term IC50 denotes the concentration needed to halve the response being measured.
